In the supplement of paper PMC10307832:

Assays:
Experiment in all cases: relative viability (nuclei count vs DMSO), 5 days (fraction); higher = more cells survive
[1] = compound: C1CC(C1)(C(=O)O)C(=O)O.[NH2-].[NH2-].[Pt+2] [Carboplatin] + Cc1nc(NC(=O)N2CCC[C@H]2C(N)=O)sc1-c1ccnc(C(C)(C)C(F)(F)F)c1 [Alpelisib] (partner 2 µM)
Summary of the method: (§1)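 Cells from lung cancer lines were seeded into 1536-well plates and, one day later, dosed by pin tool. Treatments were either a single drug or a fixed dose of an anchor drug with five library-drug doses (not always all listed) in √10 steps. After 5 days, nuclei were stained in a one-step fixation (final 0.05% Triton X-100, 1% formaldehyde, 1 ug/ml Hoechst) and counted on 4× images, and relative viability is the treated-to-vehicle nuclei ratio, as the median of duplicate plates.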

[2] = compound: C1CC(C1)(C(=O)O)C(=O)O.[NH2-].[NH2-].[Pt+2] [Carboplatin] + Cc1nc(Nc2ncc(C(=O)Nc3c(C)cccc3Cl)s2)cc(N2CCN(CCO)CC2)n1 [Dasatinib] (partner 0.075 µM)
Summary of the method: as §1

[3] = compound: CC[C@H](C)N1C=C(C2=C(C=C(C=C21)C3=CN=C(C=C3)N4CCNCC4)C(=O)NCC5=C(C=C(NC5=O)C)C)C [GSK126] + COc1cccc2cc(-c3nc([C@H]4CC[C@H](C(=O)O)CC4)n4ncnc(N)c34)[nH]c12 [OSI-027] (partner 0.5 µM)
Summary of the method: as §1

[4] = compound: CC[C@H](C)N1C=C(C2=C(C=C(C=C21)C3=CN=C(C=C3)N4CCNCC4)C(=O)NCC5=C(C=C(NC5=O)C)C)C [GSK126] + Nc1nc2[nH]cc(CCc3ccc(C(=O)N[C@@H](CCC(=O)O)C(=O)O)cc3)c2c(=O)[nH]1 [Pemetrexed] (partner 0.2 µM)
Summary of the method: as §1

| Cell Line | relative viability ([1]; first compound 0.08 µM) | relative viability ([1]; first compound 0.253 µM) | relative viability ([1]; first compound 0.8 µM) | relative viability ([1]; first compound 2.53 µM) | relative viability ([1]; first compound 8 µM) | relative viability ([2]; first compound 0.08 µM) | relative viability ([2]; first compound 0.253 µM) | relative viability ([2]; first compound 0.8 µM) | relative viability ([2]; first compound 2.53 µM) | relative viability ([2]; first compound 8 µM) | relative viability ([3]; first compound 0.08 µM) | relative viability ([3]; first compound 0.253 µM) | relative viability ([3]; first compound 0.8 µM) | relative viability ([3]; first compound 2.53 µM) | relative viability ([3]; first compound 8 µM) | relative viability ([4]; first compound 0.08 µM) | relative viability ([4]; first compound 0.253 µM) | relative viability ([4]; first compound 0.8 µM) | relative viability ([4]; first compound 2.53 µM) | relative viability ([4]; first compound 8 µM) |
| --- | --- | --- | --- | --- | --- | --- | --- | --- | --- | --- | --- | --- | --- | --- | --- | --- | --- | --- | --- | --- |
| NCI-H441 | 0.896 | 0.694 | 0.643 | 0.651 | 0.692 | 0.665 | 0.798 | 0.546 | 0.627 | 0.47 | 0.949 | 0.686 | 0.637 | 0.677 | 0.543 | 0.289 | 0.281 | 0.272 | 0.248 | 0.267 |
| NCI-H3122 | 0.773 | 0.862 | 0.869 | 0.762 | 0.764 | 0.759 | 0.996 | 0.87 | 0.961 | 0.816 | 1.23 | 0.953 | 0.963 | 1.01 | 0.896 | 0.203 | 0.208 | 0.185 | 0.204 | 0.209 |
| HCC-78 | 0.291 | 0.391 | 0.317 | 0.285 | 0.33 | 0.576 | 0.425 | 0.372 | 0.416 | 0.489 | 0.359 | 0.379 | 0.384 | 0.373 | 0.396 | 0.889 | 0.866 | 0.888 | 0.891 | 0.871 |
| HCC-827 | 1.07 | 0.962 | 0.9 | 0.944 | 0.893 | 0.327 | 0.326 | 0.337 | 0.35 | 0.432 | 0.803 | 0.83 | 0.768 | 0.768 | 0.776 | 0.264 | 0.285 | 0.249 | 0.27 | 0.287 |
| Calu-6 | 1 | 0.913 | 1.04 | 0.856 | 0.4 | – | – | – | – | – | – | – | – | – | – | – | – | – | – | – |
| NCI-H2009 | 1.3 | 1.11 | 1.15 | 0.973 | 0.695 | 0.321 | 0.286 | 0.29 | 0.291 | 0.249 | 0.789 | 0.544 | 0.64 | 0.682 | 0.72 | 1.11 | 1.03 | 1 | 0.982 | 1.06 |
| NCI-H322M | 0.74 | 0.574 | 0.605 | 0.739 | 0.701 | 0.281 | 0.243 | 0.255 | 0.256 | 0.257 | 0.544 | 0.571 | 0.56 | 0.565 | 0.62 | 0.543 | 0.621 | 0.615 | 0.648 | 0.641 |
| NCI-H23 | 0.659 | 0.75 | 0.623 | 0.681 | 0.635 | 0.918 | 0.854 | 0.673 | 0.534 | 0.663 | 0.697 | 0.6 | 0.668 | 0.682 | 0.559 | 0.773 | 0.735 | 0.687 | 0.706 | 0.631 |
| NCI-H1648 | – | – | – | – | – | – | – | – | – | – | 0.248 | – | 0.265 | 0.242 | 0.252 | 0.693 | 0.766 | 0.884 | 0.945 | 0.76 |
